“And” between values parts separate entries of the source, which are not always exact repeats. Equal values may be shown once.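 Interpolation was linear, between the two tested concentrations surrounding the appropriate level; five concentrations were tested over 48 hours in 96-well plates. The concentration for 50% growth inhibition is given as GI50. TGI: total growth inhibition.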
Legend:
Assay in all cases: inhibition of tumour cell growth, NCI panel, 48 h
U251 CNS = system: U251 CNS
HCT-116 colon = system: HCT-116 colon
NCI/ADR-RES ovarian = system: NCI/ADR-RES ovarian
A549 NSCLC = system: A549 NSCLC
A498 renal = system: A498 renal
OVCAR-8 ovarian = system: OVCAR-8 ovarian
UACC-257 melanoma = system: UACC-257 melanoma
RXF 393 renal = system: RXF 393 renal
SNB-75 CNS = system: SNB-75 CNS
T-47D breast = system: T-47D breast

Compound	GI50 (U251 CNS) [µM]	TGI (U251 CNS)	GI50 (HCT-116 colon) [nM]	TGI (HCT-116 colon)	GI50 (NCI/ADR-RES ovarian) [nM]	TGI (NCI/ADR-RES ovarian) [µM]	GI50 (A549 NSCLC) [µM]	TGI (A549 NSCLC) [µM]	GI50 (A498 renal) [nM]	TGI (A498 renal) [µM]	GI50 (OVCAR-8 ovarian) [µM]	TGI (OVCAR-8 ovarian) [µM]	GI50 (UACC-257 melanoma) [µM]	TGI (UACC-257 melanoma) [µM]	GI50 (RXF 393 renal) [µM]	TGI (RXF 393 renal) [µM]	GI50 (SNB-75 CNS) [µM]	TGI (SNB-75 CNS) [µM]	GI50 (T-47D breast) [µM]	TGI (T-47D breast) [µM]
Cn1c(O)c(C(/C=C/c2ccccc2)=NCCN=C(/C=C/c2ccccc2)c2c(O)n(C)c(=O)n(C)c2=O)c(=O)n(C)c1=O	18.3	> 50 µM	13600	> 50 µM	15300	> 50	16.7	> 50	16600	40.7	16.6	> 50	23.5	> 50	22.5	> 50	17.6	> 50	16.1	> 50
O=C(O)CCC(=O)c1ccc2ccc3cccc4ccc1c2c34		> 100 µM		> 100 µM		> 100		> 100		> 100		> 100		> 100		> 100		> 100		> 100
O=C(Nc1ccc(Oc2ccc3nc(NC(=O)c4ccccc4)[nH]c3c2)cc1)Nc1cc(C(F)(F)F)ccc1F	1.28	21.6 µM	1090	> 18.1 µM	771	3.38	0.846	13.3	2570	> 25	0.764	5.08	1.39	11.3	1.11	8.49	1.3	10	0.783	3.17
COC(=O)[C@]12CC[C@@H](C)[C@H](C)[C@@H]1C1=CC[C@@H]3[C@@]4(C)C(C=O)=C[C@@](C)(COC(=O)c5ccco5)[C@@H]4C(=O)C[C@@]3(C)[C@]1(C)CC2	4.83	> 100 µM	3680	> 100 µM	4820	> 100	3.99	> 100	12100	94.7	5.55	> 100	0.148	0.666	3.35	35.3	4.24	> 100	3.71	50.6
Cc1ccc(Nc2n[nH]c(=S)s2)cc1		> 100 µM		> 100 µM		> 100		> 100		> 100		> 100		> 100		> 100		> 100		> 100
CN(C)c1ccc(/C=C(\C#N)c2nc3ccccc3n2C)cc1	3.72	> 100 µM	1410	> 100 µM	1470	11.1	4.53	> 100	729	6.82	4.79	> 72.9	20.2	> 100	2.77	> 24.8	2.54	> 31.3	3.08	27.2
O=[N+]([O-])c1ccc2c(N3CCC(CCCC4CCN(c5ncnc6cc([N+](=O)[O-])ccc56)CC4)CC3)ncnc2c1	> 42.2	> 100 µM	514	97.6 µM	658	> 100	38.1	> 100	1440	> 100	1.62	> 100	1.55	> 100	30.8	> 100	> 39.6	> 71.2	0.454	> 69.3
Oc1c(CN2CCCC2)cc(COCc2ccc(Br)cc2)c2cccnc12	0.525	2.78 µM	365	3.56 µM	70.7	1.13	0.914	9.89	1620	5.27	0.398	1.94	1.34	3.02	1.04	3.41	1.33	11.7	0.501	3.08
CN(N=O)C(=O)N[C@@H](C=O)[C@@H](O)[C@H](O)[C@H](O)CO	> 750	626 µM and > 750 µM	> 750000	653 µM and > 750 µM		> 750	> 750	> 750		> 628	> 750	> 750	> 750	> 750	> 750	> 750	696	> 750		> 750
CC(=O)c1c(C)n(C)c2c1nnc1ccccc12		> 100 µM		> 100 µM		> 100		> 100		> 100		> 100		> 100		> 100				> 100
CC(C)(C#N)c1cc(F)cc(C(=O)Nc2cc(Nc3ncccc3-c3ncnc4nc[nH]c34)ccc2F)c1	3.55	> 10 µM	212	> 10 µM	4580	> 10	5.49	> 10	200	1.09	3.16	> 10			2.22	> 10	3.31	> 10	2.9	> 10
CNC(=O)c1ccc2cc(C3(O)CCn4cncc43)ccc2c1 (stereo not drawn)	> 100	> 100 µM	> 100000	> 100 µM	> 100000	> 100	> 100	> 100	> 100000	> 100	> 100	> 100	> 100	> 100	> 100	> 100	> 100	> 100	> 100	> 100
CO/N=C(\C)c1cccc(Nc2cc(-c3ccccc3)nc3c(O)cccc23)c1	4.38	16.7 µM	3210	15.2 µM	2020	13.5	5.99	21.8			5.52	25.9	4.07	22.6	3.69	14.9	20.5	96.2	4.32	26.7
CC(=O)c1cc2c(cc1Nc1c3ccccc3nc3occ(Cl)c13)OCO2	0.35	> 100 µM	246	1.07 µM	236	1.47	0.2		105	0.373	0.205	0.766	> 100	> 100	0.193	0.523				> 100
